“And” between values parts separate entries of the source, which are not always exact repeats. Equal entries are not always repeated. The source made the active and inactive calls. The rule behind the calls is not given here.
Assays:
[1] = system: Opioid receptors; mu & kappa; conditions: Cavia porcellus; Ileum
[2] = species on record: Mus musculus; test: Opioid antagonist activity of compound was measured as inhibiting the binding of normorphine to mouse vas deferens; format: functional
[3] = species on record: Mus musculus; test: Opioid agonistic activity was measured in mouse vas deferens.; format: functional
[4] = species on record: Mus musculus; test: Opioid agonistic activity was measured in mouse vas deferens; format: functional
[5] = species on record: Cavia porcellus; test: Opioid agonistic activity was measured in guinea pig ileum; format: functional
[6] = species on record: Mus musculus

`Oc1ccc2c3c1O[C@H]1[C@@H](O)C=C[C@@]4(O)C(C2)N(CC2CC2)CCC314` (some centres undefined) was tested, and the Ke [1] was 2.35 nM and the Ke [2] was 10.5 nM and 9 nM.

`O=C1C=C[C@@]2([N+](=O)[O-])C3Cc4ccc(O)c5c4C2(CCN3CC2CC2)[C@H]1O5` (some centres undefined) gave a Ke [1] of 4.44 nM, an IC50 [3] of 580 nM and a Ke [2] of 14.9 nM. The IC50 [4] was 330 nM and the IC50 [5] was 41.2 nM.

For `Oc1ccc2c3c1O[C@H]1[C@@H](O)C=C[C@@]4(S)C(C2)N(CC2CC2)CCC314` (some centres undefined), the Ke [1] was 1.69 nM, the Ke [2] was 22.9 nM and 20 nM and the IC50 [4] was 218 nM. For the same compound, the IC50 [5] was 39.1 nM.

For `C=CCN1CC[C@]23c4c5ccc(O)c4O[C@H]2C(=O)CC[C@@]3(O)[C@H]1C5` [NALOXONE], the Ke [2] was 3.66 nM.

In the case of `O=C1C=C[C@@]2(Br)C3Cc4ccc(O)c5c4C2(CCN3CC2CC2)[C@H]1O5` (some centres undefined), the Ke [1] is reported as 1.36 nM and the Ke [2] is reported as 2.35 nM and 2.83 nM.

`O=C1C=C[C@@]2(Cl)C3Cc4ccc(O)c5c4C2(CCN3CC2CC2)[C@H]1O5` (some centres undefined) showed a Ke [1] of 3.92 nM and a Ke [2] of 16.6 nM.

`O=C1CC[C@@]2(O)[C@H]3Cc4ccc(O)c5c4[C@@]2(CCN3CC2CC2)[C@H]1O5` [NALTREXONE] showed an Inhibition [5] of 25%.

For `Oc1ccc2c3c1O[C@H]1[C@@H](O)C=C[C@H]4C(C2)N(CC2CC2)CCC341` (some centres undefined), the Ke [1] was 0.8 nM and the IC50 [5] was 2.16 nM.

In the case of `CN1CC[C@]23c4c5ccc(O)c4O[C@H]2[C@@H](O)C=C[C@H]3[C@H]1C5`, the Ke [6] is reported as “inactive”.

`C=CCN1CC[C@]23c4c5ccc(O)c4O[C@H]2[C@@H](O)C=C[C@H]3[C@H]1C5` [NALORPHINE] was tested, and the Ke [1] was 4.47 nM, the Ke [2] was 28.7 nM and the IC50 [4] was 535 nM. The IC50 [5] was 24.3 nM.

— ChEMBL document CHEMBL1121787, “Some 14 beta-substituted analogues of N-(cyclopropylmethyl)normorphine” (J Med Chem, 1981)
